# Data reported in patent US20040253597A1, “Novel protein and dna thereof” (priority 2001, published 2004).
# Molecular target: T1, human TCH169 (Homo sapiens, UniProt Q86YT5)
# T1 construct: expressed in transfected cells
# Assay: [1,5-^14C] citric acid uptake in the human TCH169 gene expression cell line
# Format: cell-based
# Details: human TCH169 expressing CHO cells clone No. 2-11; NaCl buffer (140 mM NaCl) vs NMDG buffer and Mock cells; 37° C., 15 minutes, 30 minutes and an hour
# Method: Using human TCH169 gene expression cell line clone No. 2-11 acquired in EXAMPLE 7, the uptake of [1,5-^14C] citric acid was assayed. Human TCH169 gene expression cell line clone No. 2-11 was seeded on a 96 well plate in 4×10^4 cells per well, followed by incubation at 37° C. for 24 hours. After the medium was removed, the cells were washed 3 times with 150 μL NMDG buffer (140 mM N-methyl-D(−)-glucamine, 25 mM Hepes/Tris, 5.4 mM KCl, 1.8 mM CaCl2, 0.8 mM MgSO4, 5 mM glucose, pH 7.4-7.6), and 150 μL NMDG buffer was supplemented thereto followed by incubation at 37° C. for an hour. After the buffer was replaced with 90 μL NaCl buffer (140 mM NaCl, 25 mM Hepes/Tris, 5.4 mM KCl, 1.8 mM CaCl2, 0.8 mM MgSO4, 5 mM glucose, pH 7.4-7.6) or 90 μL NMDG buffer, 10 μL of 223 μM [1,5-^14C] citric acid (manufactured by Amersham-Pharmacia-Biotech) was added and incubation was performed at 37° C. for 15 minutes, 30 minutes and an hour followed by washing 3 times with 200 μL PBS (manufactured by Takara Shuzo Co., Ltd.). After 100 μL of Opitiphase ‘SuperMix’ (manufactured by Perkin-Elmer-Life Science) was added to the system and the mixture was stirred, the amount of [1,5-^14C] citric acid taken up into the cells was measured in terms of the radioactivity. […] CHO dhfr^− cells transfected with vector pcDNA3.1(+) (Mock) was also treated in a similar manner to measure the radioactivity as well.
# T1 sequence (Q86YT5 whole entry): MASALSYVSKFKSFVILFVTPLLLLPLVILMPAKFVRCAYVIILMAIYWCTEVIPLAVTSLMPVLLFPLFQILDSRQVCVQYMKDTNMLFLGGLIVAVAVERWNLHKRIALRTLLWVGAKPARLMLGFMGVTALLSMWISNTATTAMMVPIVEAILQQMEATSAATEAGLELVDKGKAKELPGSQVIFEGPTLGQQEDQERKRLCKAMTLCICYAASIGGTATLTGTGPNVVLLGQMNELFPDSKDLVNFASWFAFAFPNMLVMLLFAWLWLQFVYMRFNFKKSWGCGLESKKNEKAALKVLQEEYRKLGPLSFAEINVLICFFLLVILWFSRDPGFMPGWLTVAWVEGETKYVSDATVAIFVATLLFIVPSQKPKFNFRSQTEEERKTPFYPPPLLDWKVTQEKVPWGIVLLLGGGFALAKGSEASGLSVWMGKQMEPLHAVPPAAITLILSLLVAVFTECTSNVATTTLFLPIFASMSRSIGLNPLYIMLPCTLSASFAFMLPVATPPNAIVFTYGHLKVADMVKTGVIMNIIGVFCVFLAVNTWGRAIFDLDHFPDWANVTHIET
smiles,measurement,value
"O=C(O)C(O)(C[14C](=O)O)C[14C](=O)O [[1,5-^14C] citric acid]","uptake of [1,5-^14C] citric acid into the cells (radioactivity)",taken up into the human TCH169 expression CHO cells
